Data published in patent US20190300882A1, “METHODS OF TREATING NEUROBLASTOMA AND REAGENTS THEREFOR” (GARVAN INSTITUTE OF MEDICAL RESEARCH, priority 2016, published 2019).

Assays:
KELLY cells [1] = experiment: Primary miRNA mimic screen in combination with low dose IC30 of vincristine or doxorubicin, cell viability; type: cell-based; details: for Primary screen Viability (% of control) Kelly DXR: miRNA mimic 25 nM + low dose IC30 doxorubicin; for Primary screen Viability (% of control) Kelly VCR: miRNA mimic 25 nM + low dose IC30 vincristine; for Primary screen Viability (% of control) Kelly Vehicle: miRNA mimic 25 nM + vehicle
Protocol: To systematically identify miRNAs that affect viability and survival of neuroblstoma cells in combination with chemotherapy, a further functional miRNA screen was performed using the 1200 miRNAs from the miRIDIAN miRNA mimic Library (version 16.0; Dharmacon) in combination with low dose IC30 of vincristine or doxorubicin in the two neuroblastoma cancer cell lines. In doing so, the inventors identified miRNAs which result in a lethal phenotype to neuroblastoma cells when administered in combination with low dose IC30 chemotherapy (hereinafter referred to as ‘synthetic lethal’ miRNAs). […] After 24 hours, media was changed using a BioTek 406. […] Luminescence measurements were taken on the Synergy H4 high-throughput multimode microplate reader as described in Example 1. All screens were performed in duplicates.

KELLY cells [2] = experiment: Secondary validation screen of synthetic lethal miRNAs with low dose IC30 chemotherapy, cell viability; type: cell-based; details: for synthetic lethality with chemotherapy: in both Kelly and SKNDZ MYCN-amplified cells, secondary screen; for Secondary screen Viability (% of control) Kelly DXR: miRNA mimic + low dose IC30 doxorubicin; for Secondary screen Viability (% of control) Kelly VCR: miRNA mimic + low dose IC30 vincristine; for Secondary screen Viability (% of control) Kelly Vehicle: miRNA mimic + vehicle
Protocol: (§1) KELLY cells were grown in 10% FCS/RPMI as described in Example 1 and reverse transfected in 384-well plate format with 25 nM of a miRNA from the Dharmacon microRNA mimic Library (version 16.0) using liquid-handling robot Calliper Sciclone ALH3000 according to the conditions described in Table 3. After 24 hours, media was changed using a BioTek 406. Media was again changed after 48 hours and 96 hours using a BioTek 406, and at each of those time points low dose IC30 of vincristine or doxorubicin was added to the culture. 144 hours post-transfection, cell viability was determined using CellTiter-Glo luminescent assay (Promega) at 1:2 dilution. Luminescence measurements were taken on the Synergy H4 high-throughput multimode microplate reader as described in Example 1. All screens were performed in duplicates. The experimental design and timeline for this screen are illustrated in FIGS. 5 and 6, respectively.
(§2) The secondary validation screens were performed in accordance with the genome-wide screens described in Example 1 and Example 2, respectively, with the exception that an additional MYCN-amplified neuroblastoma cell line (SK-N-DZ) was added to each screen.
(§3) Furthermore, five additional non-active miRNAs discovered to have no measureable effect across all treatment groups of the genome-wide screen (‘non-lethal’ miRNAs) were included as negative controls.

[3] = tested on: SK-N-DZ MYCN-amplified neuroblastoma cell line; experiment: Secondary validation screen of synthetic lethal miRNAs with low dose IC30 chemotherapy, additional cell line; type: cell-based; details: for Additional cell line Viability (% of control) SKNDZ DXR: miRNA mimic + low dose IC30 doxorubicin; for Additional cell line Viability (% of control) SKNDZ VCR: miRNA mimic + low dose IC30 vincristine; for Additional cell line Viability (% of control) SKNDZ Vehicle: miRNA mimic + vehicle
Protocol: as §1, §2, §3

IMR-90 cells = experiment: Cell toxicity screen of synthetic lethal miRNAs in non-cancer cells; details: for cell viability in non-cancer cells, DXR (% of control): IMR-90, miRNA + low dose IC30 doxorubicin; for cell viability in non-cancer cells, VCR (% of control): IMR-90, miRNA + low dose IC30 vincristine; for cell viability in non-cancer cells, Media (% of control): IMR-90, miRNA alone (media)
Protocol: The cell toxicity screens were performed in IMR-90 cells (normal human fibroblast cells, ATCC).

## hsa-miR-1321 (CAGGGAGGUGAAUGUGAU; chemistry not given here; listed as Homo sapiens)
KELLY cells [1]
  Primary screen Viability (% of control) Kelly DXR: 4 % of control
  Primary screen Viability (% of control) Kelly VCR: 18 % of control
  Primary screen Viability (% of control) Kelly Vehicle: 42 % of control
KELLY cells [2]
  synthetic lethality with chemotherapy: substantial synthetic lethality
  Secondary screen Viability (% of control) Kelly DXR: 7 % of control
  Secondary screen Viability (% of control) Kelly VCR: 24 % of control
  Secondary screen Viability (% of control) Kelly Vehicle: 50 % of control
[3]
  Additional cell line Viability (% of control) SKNDZ DXR: 21 % of control
  Additional cell line Viability (% of control) SKNDZ VCR: 45 % of control
  Additional cell line Viability (% of control) SKNDZ Vehicle: 64 % of control
IMR-90 cells
  cell viability in non-cancer cells, DXR (% of control): 23 % of control
  cell viability in non-cancer cells, VCR (% of control): 23 % of control
  cell viability in non-cancer cells, Media (% of control): 48 % of control

## hsa-miR-485-3p (guide GUCAUACACGGCUCUCCUCUCU; chemistry not given here; listed as Homo sapiens)
KELLY cells [1]
  Primary screen Viability (% of control) Kelly DXR: 23 % of control
  Primary screen Viability (% of control) Kelly VCR: 52 % of control
  Primary screen Viability (% of control) Kelly Vehicle: 72 % of control
KELLY cells [2]
  synthetic lethality with chemotherapy: substantial synthetic lethality
  Secondary screen Viability (% of control) Kelly DXR: 47 % of control
  Secondary screen Viability (% of control) Kelly VCR: 53 % of control
  Secondary screen Viability (% of control) Kelly Vehicle: 85 % of control
[3]
  Additional cell line Viability (% of control) SKNDZ DXR: 69 % of control
  Additional cell line Viability (% of control) SKNDZ VCR: 68 % of control
  Additional cell line Viability (% of control) SKNDZ Vehicle: 113 % of control
IMR-90 cells
  cell viability in non-cancer cells, DXR (% of control): 76 % of control
  cell viability in non-cancer cells, VCR (% of control): 80 % of control
  cell viability in non-cancer cells, Media (% of control): 79 % of control
IMR-90 cells; even when administered in combination with a chemotherapeutic agent
  activity in IMR90 cells: minimal activity
